This note sets out measurements from paper PMC12188386, “Selective CBP/EP300 Bromodomain Inhibitors: Novel Epigenetic Tools to Counter TNF-α-Driven Inflammation” (JACS Au, 2025).

The test system of data set [1] is panel of 32 bromodomains. The data set is described as follows: bromoMAX BROMOscan panel. Format: binding. The note with it: 1 µM. As to the method: (§1) was used as the calibration curve. To obtain saturated solutions of the compounds of interest, in duplicates 4.4 µL of a 10 or 5 mM stock in DMSO was added to 436 µL Buffer (PBS, pH = 7.4), to give a final concentration of 100 or 50 µM. Samples were incubated on a shaker (500 rpm) at 37°C for 90 minutes and then filtered (Millex-GV 13 mm, 0.22 µm). 304 µL of the filtrate was mixed with 76 µL of acetonitrile on a dilution plate, from which 350 µL was transferred to a UV-plate and UV-absorption was read using a SpectraMax M5 (Molecular devices). The absorbance was blank-corrected and compared to the calibration curve to […]
(§2) solubility. […]
(§3) lower solubility (2) compounds respectively in a 12.5 w/v% CAPTISOL® solution in water. […] Based on the known density of 12.5 % CAPTISOL® solution (d = 1.05755 g/mL at 25 °C), the precise weight of the resulting solution and so the required amount of water by weight was calculated. […] In duplicates, aliquots of the filtrates were taken and diluted with blank 12.5 % CAPTISOL® water solution in either a 1:14 (higher sol. compounds) or 1:7 (lower sol. compounds) ratio, 350 µL was transferred to a 96-Well Plate (Greiner, UV-star) then UV absorption (240-400 nm, 10 nm steps) was measured using a SpectraMax M5 (Molecular devices). […] The calculated concentrations are available in Table S4. […]
(§4) The bromodomain concentration in the eluates was measured by qPCR. […]

The subject of data set [2] is TNF-α-induced cytokine expression in THP-1 cells. The data set is described as follows: cytokine mRNA expression by RT-qPCR. Format: cell-based, human. The note with it: 1 h co-treatment of THP-1 cells with 10 ng/mL TNF-α and 1 μM compound. The protocol: For cytokine expression determination, 5x10^5 THP-1 cells were plated on 12 well plates the day prior to treatment with 10 ng/mL recombinant human TNF -α (aa 77-233) protein (R&D systems, 10291 -TA) and compounds at a final concentration of 0.1 % DMSO. In all cases, total
RNA was extracted using the NucleoSpin® RNA kit (Machery -Nagel) and used for cDNA synthesis with the High -Capacity cDNA Reverse Transcription kit (Applied Biosystems). RT-qPCR reactions were performed using PowerSYBR™ green PCR Master Mix (Applied Biosystems) and a LightCycler® 480 (Roche). cDNA was denatured for 10 min at 95 °C followed by 40 cycles of 15 s at 95 °C and 1 min at 60 °C. Cp values were determined as the maximum of the second derivative and target gene expression was compared to that of hprt from the same sample using the 2-ΔCp method. Gene expression was then normalized to the average of the control samples from the same day, or all biological replicates. […]

Data set [3] addresses CBP (Homo sapiens, UniProt Q92793). As to the kind of experiment: commercial Bromoscan assay. The class given is binding. The protocol: as §1, §2, §3, §4
Data set [4] deals with MRC5 cells. The data set is described as follows: viability assay (resazurin). The settings on record: three-day treatment, concentration resulting in 70 % viability. Format: cell-based. The protocol: MRC5 (2x10^3 cells/well) or THP-1 (8x10^3 cells/well) cells were plated onto 96 well plates and treated with compounds at a final DMSO concentration of 0.5 % (MRC5) or 0.1 % (THP-1).
After 3 days of treatment, resazurin (Acros Organics) was added at a final concentration of 86 μ and incu ated for 2h15 (MRC5) or 3 h (THP-1). Fluorescence (ex. 560 nm, em. 590 nm) was read using a SpectraMax M5 (Molecular devices). GI30 values were calculated as the compound concentration resulting in 70 % viability compared to DMSO treated controls using a nonlinear regression fit using GraphPad Prism with the following equation: (Y=Bottom + (100-Bottom)/(1+(IC50/X)^HillSlope)). […]
After 1.5 h, mice were injected with 10 µL of the prepared CAPTISOL […]
foodpad and also intraperitoneally (for i.p. injection, the 10 µL of CAPTISOL solution was diluted to a final volume of 100 µL using PBS). Organs were collected 5 h after TNF-α […]
LEGENDPlexTM assays (Mouse Pro-inflammatory Chemokine Panel and Mouse Inflammation Panel; Biolegend) were performed to monitor cytokine/chemokine expression. Briefly, popliteal LNs were collected and carefully disrupted in […] ice-cold phosphate buffer, minimizing cell rupture. The suspension was centrifuged at 1,500 rpm for 5 min, and the […]
(The colour change of resazurin is a common sign of viable cells or microbes.)

CBP, sequence (Q92793 1085-1192 limits assumed): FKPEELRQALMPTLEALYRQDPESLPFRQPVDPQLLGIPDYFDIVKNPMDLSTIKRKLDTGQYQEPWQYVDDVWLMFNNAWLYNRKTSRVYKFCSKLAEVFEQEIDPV

One may read the Kd as the concentration at which binding is half-saturated. The low end stands for higher affinity, the high end for lower affinity. Turning to `Cc1cc2c(NC(=O)c3cc(NC(=O)c4ccco4)cc(-c4ccn(C)n4)c3)cccc2nn1` [Compound 2], the “selectivity over BRD4(1) and a broader panel of BRD-containing proteins” value in data set [1] is on record as “highly selective”. For the same compound, in data set [2], the “TNF-α-induced expression of il1β, il8, mcp-1 and tnf-α (mRNA)” value was “inhibited expression to a greater extent than the less potent but more soluble inhibitor 5”. In addition, the affinity in data set [3], expressed as Kd, was 0.009 µM. Besides, the GI30 in data set [4] is over 10 µM.
Turning to `Cc1cc2c(NC(=O)c3cc(NC(=O)[C@H]4CCCO4)cc(-c4ccn(C)n4)c3)cccc2nn1` [Compound 5], the “selectivity over BRD4(1) and a broader panel of BRD-containing proteins” value in data set [1] is “highly selective”. Also, the GI30 in data set [4] is over 10 µM.
